From US20040006094A1, “4-pyrimidinamine derivatives, pharmaceutical compositions and related methods” (priority 2000, published 2004)
One block for each compound: values may come before it.

Columns and labels:
[1] = system: differentiated P19 neurons; experiment: Drug screening using differentiated P19 cell assay (neuroprotection against 3 mM glutamate and 1 mM glycine); assay type: cell-based, murine; conditions: dose response 0.005-3 μM, >1 = no observed maximum within highest dose tested (3 μM)
Method: Commercially available chemical libraries (BioFocus PLC, UK) were screened using the methods described herein. The stock concentration of the compounds was about 400 μM in DMSO. The concentration of compounds used in the primary screen was 1 μM. […] Columns 4-11 received compounds at the following final concentrations (μM): 3, 1.2, 0.48, 0.192, 0.077, 0.031, 0.012 and 0.005. Each row contained a different compound for confirmation. Only rows B-G received compounds, and rows A and H remained untreated.
Only the 4-pyrimidinamines are the subject of this invention, although limited data for 2-pyridinamines are presented as well. “% Inh” indicates the percentage of control cells surviving after 24 hours, and represents the neuroprotective effect of the compounds screened at 1 micromolar concentration. IC50 relate to data from dose response experiments. […] ND refers to compounds not tested in dose-response experiments.
The representative compounds listed in Tables IX<X, XI and XII were tested according to the procedure described in Example 5 with results as listed in Table XIII. Unless otherwise noted, molecular weights were measure on a Hewlitt-Packard Series 1050 Chemical Ionization mass spectrometer.

[2] = system: Male Wistar rats; experiment: Transient model of cerebral ischemia in rats (lesion volume); assay type: in vivo, rat; conditions: i.v., 1 hr post ischemia onset, 24 h, average of 12
Method: Male Wistar rats (Iffa Crédo, France), weighing 250-300 g, were housed 2 per cage under a light-dark cycle of 12 hr-12 hr (light on at 7:00 a.m., off at 7:00 p.m.) at a room temperature of 21±2° C., with 50±15% humidity, for a minimum of 5 days before the experiments. During this time, the rats had free access to commercial rat chow (Trouw Nutrition France, Vigny, France, ref. 811002) and tap water.
The animals were anaesthetized with 5% halothane in air for induction, then 1-2% halothane during surgery. The rat's body temperature was maintained at 37° C. with a heating pad. A 2 cm incision was made at the center of the neck and the right common carotid artery (CCA), external carotid artery (ECA) and internal carotid artery (ICA) were exposed under an operating microscope. The ICA was further dissected to identify the pterygopalatine artery (PA) branch and the intracranial ICA branch. The CCA was ligated. A 3-0 silk suture was tied at the origin of the ECA and ligated. A catheter (id=0.58 mm) was introduced into the CCA through a small puncture and advanced to the intracranial branch of the ICA. A 4-0 surgical nylon suture was introduced into the catheter. A length of approximately 19 mm of nylon suture was gently advanced from the CCA into the lumen of the ICA until the suture blocked the origin of the MCA. The suture was sealed into the catheter by heat, leaving 1 cm of catheter protruding so the suture could be withdrawn to allow reperfusion. The incision was closed using skin clips. Anaesthesia was then terminated and the animals were placed under heat lamps until recovery from anaesthesia. The rats awakened 10-15 min later. After 2 hr of ischemia, reperfusion was performed by withdrawal of the suture until the tip cleared the ICA lumen. Vehicle or test compound was administered intraperitoneally (i.p.) or intravenously (i.v.) at 1 hr post ischemia onset.
24 h after the onset of occlusion, the rats were killed by decapitation. The brains were immediately removed, frozen in isopentane and stored at −20° C. The brains were then cut in 20 μm thick sections in a cryocut. Every 20th slice was used to measure infarct area. The sections were stained with cresyl violet and the areas of infarct in the striatum and cortex were determined by planimetry using an image analysis software (Image, NIH) after digitalization of the section images.
Following the procedure described above, MK-801, compound #46 and compound #264 (as listed in the Tables herein) were evaluated for neuroprotective effects in rats with results as listed in Table VIII. The data represent average lesion volume in mm^3 for 12 measurements. Vehicle used was 15% solutol in 5% dextrose.

[3] = system: P19 neurons; experiment: P19 neuron viability / toxicity by Alamar blue fluorescence; assay type: cell-based, murine
Method: Alamar Blue fluorescence, an indicator of cell viability, was used to determine cell viability after an NMDA-induced cytotoxic insult. […] However, since raw fluorescence counts vary from experiment to experiment, FIGS. 2A, 2B, and 2C are expressed as a percent of control.
Glutamate toxicity dose response in the presence of a constant 1 mM glycine concentration was measured in the differentiated P19 neurons. The curve generated through the data points is the average of 6 separate dose response curves. Data points are represented as the percent of control cells±standard error. % control=(([Glutamate]exp−[Glutamate]max)/(Controlvehicle−[Glutamate]max))×100.
(§1) The second method for measuring cell viability was a plate reader method. Cells plated into black 96 well plates (Packard viewplates) were loaded with 5% Alamar Blue dye (Biosource International). Alamar Blue is a dye that takes advantage of mitochondrial reductases to convert non-fluorescent resazurin to fluorescent resorufin (excitation 535 nm, emission 580 nm). Baseline fluorescence counts were read at room temperature in a Wallac plate reader immediately after addition of Alamar blue. Fluorescence counts of cell viability were taken the same way after 1 hour incubation at 37° C. Fluorescence was expressed as a percent of control, untreated cells after subtraction of background fluorescence. Live/dead cells were confirmed visually with a light microscope.
Cells were then assayed for Alamar blue fluorescence. The curve generated through the data points is the average of 3 separate dose response curves. Data points are represented as percent of control cells±standard error.

[4] = system: differentiated P19 neurons; experiment: Differentiated P19 excitotoxicity assay: neuroprotection by known kinase inhibitors against glutamate/glycine (Alamar Blue, CFDA); assay type: cell-based, murine; conditions: 3 mM glutamate, 1 mM glycine
Method: Data points are the average±standard error of three separate experiments.
These cells were used to measure the effects of various known kinase inhibitors (Compound Identification (ID) column in Table I) upon cytotoxicity-induced by NMDA. First, P19 cells were differentiated as described in Example 2. Then cells were exposed to 3 mM of glutamate in the presence of 1 mM glycine.
Cell viability was determined. Compounds that prevented excitotoxicity were determined by measuring the percentage of viable cells compared to differentiated P19 cells that were not presented with a toxic insult (Table I).
Cell viability was measured using two methods. The first method was a confocal, single-cell fluorescence imaging-based method using the live cell dye carboxy-fluorescein diacetate (CFDA). CFDA labels the cell bodies and processes of living cells. […] CFDA fluorescence was measured using a modified Attofluor Imager device (Atto Instruments, Rockville Pike, Md.). Cells were labeled with 1 uM CFDA for 15 min in media, then placed onto the stage of the Attofluor microscope. The dye was excited by light from a mercury lamp source passed through a 488 nm bandpass filter of 10 nm band width, passed through a CARV real-time confocal spinning disk module (Atto Instruments, Rockville, Md.), and then passed through a 40×oil immersion objective (Zeiss Fluar, NA=1.3). Emitted light was transmitted through a 495 nm dichroic mirror, collected to an Attofluor intensified CCD camera, and images were visualized using Attofluor Ratio Vision software (Atto Instruments, Rockville, Md.).
as §1
Kinase inhibition activities and potencies were derived from the literature (Chijiwa et al. 1990; Favata et al. 1998; Henry et al. 1998; Inhorn and Majerus 1987; Kobayashi et al. 1989; Lee et al. 1994; Onoda et al. 1989; Tokumitsu et al. 1990). […] Curves were fit, and confidence intervals were determined using GraphPad Prism software.

[5] = molecular target: CAMKII; conditions: read-out: Potency, Ki, CAMKII; cited from earlier work

SMILES: CN(C)c1ccc(Nc2cc(-c3ccc4ccccc4c3)ncn2)cc1 [Cmpd 41]
- IC50 [1]: 0.54 µM

SMILES: CN(C)c1ccc(Nc2cc(-c3ccc(OCc4ccccc4)cc3)ncn2)cc1 [Cmpd 42, 1,4-benzenediamine, N^1,N^1-dimethyl-N^4-[6-[4-(phenylmethoxy)phenyl]-4-pyrimidinyl]-]
- IC50 [1]: 0.2 µM

- IC50 ([1]; Mus musculus, Neuron): 0.22 µM
SMILES: CN(C)c1ccc(Nc2cc(-c3cccc(-c4ccccc4)c3)ncn2)cc1 [Cmpd 43, 1,4-benzenediamine, N^1-(6-[1,1′-biphenyl]-3-yl-4-pyrimidinyl)-N^4,N^4-dimethyl-]

- IC50 ([1]; Mus musculus, Neuron): 0.26 µM
SMILES: CN(C)c1ccc(Nc2cc(-c3cc(C(F)(F)F)cc(C(F)(F)F)c3)ncn2)cc1 [Cmpd 44, 1,4-benzenediamine, N^1-[6-[3,5-bis(trifluoromethyl)phenyl]-4-pyrimidinyl]-N^4,N^4-dimethyl-]

SMILES: CCN(CCO)c1ccc(Nc2cc(-c3ccc4ccccc4c3)ncn2)cc1 [Cmpd 45]
- IC50 [1]: 0.57 µM

- IC50 ([1]; Mus musculus, Neuron): 0.07 µM
SMILES: CCN(CCO)c1ccc(Nc2cc(-c3cccc(-c4ccccc4)c3)ncn2)cc1 [Cmpd 46, ethanol, 2-[[4-[(6-[1,1′-biphenyl]-3-yl-4-pyrimidinyl)amino]phenyl]ethylamino]-]
- Cortex + Striatum Vol. (mm^3) ([2]; 0.6 mg/kg): 326.6 ± 26.0 mm^3
- Cortex Vol. (mm^3) ([2]; 0.6 mg/kg): 247.6 ± 24.8 mm^3
- Striatum Vol. (mm^3) ([2]; 0.6 mg/kg): 79.1 ± 3.0 mm^3
- Cortex + Striatum Vol. (mm^3) ([2]; 3 mg/kg): 290.8 ± 28.1 mm^3
- Cortex Vol. (mm^3) ([2]; 3 mg/kg): 214.7 ± 26.6 mm^3
- Striatum Vol. (mm^3) ([2]; 3 mg/kg): 76.1 ± 2.8 mm^3

- IC50 ([1]; Mus musculus, Neuron): 0.49 µM
SMILES: CCN(CCO)c1ccc(Nc2cc(-c3ccc(-c4ccccc4)cc3)ncn2)cc1 [Cmpd 47]

SMILES: CCN(CCO)c1ccc(Nc2cc(-c3cc(C(F)(F)F)cc(C(F)(F)F)c3)ncn2)cc1 [Cmpd 48]
- IC50 [1]: 0.48 µM

- IC50 ([1]; Mus musculus, Neuron): 0.55 µM
SMILES: CCN(CCO)c1ccc(Nc2cc(-c3cccc([N+](=O)[O-])c3)ncn2)cc1 [Cmpd 49]

- IC50 ([1]; Mus musculus, Neuron): 0.41 µM
SMILES: CCN(CCO)c1ccc(Nc2cc(-c3ccc(SC)cc3)ncn2)cc1 [Cmpd 50]

- IC50 ([1]; Mus musculus, Neuron): 0.23 µM
SMILES: CCN(CCO)c1ccc(Nc2cc(-c3ccc(OC(F)(F)F)cc3)ncn2)cc1 [Cmpd 51, ethanol, 2-[ethyl[4-[[6-[4-(trifluoromethoxy)phenyl]-4-pyrimidinyl]amino]phenyl]amino]-]

- IC50 ([1]; Mus musculus, Neuron): 0.54 µM
SMILES: CCN(CCO)c1ccc(Nc2cc(C3C=C4C=CC=CC4O3)ncn2)cc1 (stereo not shown) [Cmpd 53]

- IC50 ([1]; Mus musculus, Neuron): 0.24 µM
SMILES: CCN(CCO)c1ccc(Nc2cc(-c3cc4ccccc4s3)ncn2)cc1 [Cmpd 54, ethanol, 2-[[4-[(6-benzo[b]thien-2-yl-4-pyrimidinyl)amino]phenyl]ethylamino]-]

- IC50 ([1]; Mus musculus, Neuron): 0.86 µM
SMILES: CCN(CCO)c1ccc(Nc2cc(-c3ccsc3)ncn2)cc1 [Cmpd 55]

- IC50 ([1]; Mus musculus, Neuron): 0.57 µM
SMILES: CCN(CCO)c1ccc(Nc2cc(-c3ccccc3Oc3ccccc3)ncn2)cc1 [Cmpd 56]

- IC50 ([1]; Mus musculus, Neuron): 0.39 µM
SMILES: CCN(CCO)c1ccc(Nc2cc(-c3cnc(OCc4ccccc4)nc3OCc3ccccc3)ncn2)cc1 [Cmpd 58, 2-{[4-(2′,4′-is-benzyloxy-[4,5′]bipyrimidinyl-6-ylamino)-phenyl]-ethyl-amino}-ethanol]

SMILES: CN(C)c1ccc(Nc2cc(-c3cc4ccccc4o3)ncn2)cc1 [Cmpd 59]
- IC50 [1]: 0.48 µM

- IC50 ([1]; Mus musculus, Neuron): > 1 µM
SMILES: CN(C)c1ccc(Nc2cc(-c3cccc4ccccc34)ncn2)cc1 [Cmpd 61]

- IC50 ([1]; Mus musculus, Neuron): > 1 µM
SMILES: CN(C)c1ccc(Nc2cc(-c3ccc(C#N)cc3)ncn2)cc1 [Cmpd 62]

- IC50 ([1]; Mus musculus, Neuron): > 1 µM
SMILES: CN(C)c1ccc(Nc2cc(-c3ccccc3Oc3ccccc3)ncn2)cc1 [Cmpd 63]

- IC50 ([1]; Mus musculus, Neuron): > 1 µM
SMILES: CCN(CCO)c1ccc(Nc2cc(-c3ccc(C#N)cc3)ncn2)cc1 [Cmpd 64]

- IC50 ([1]; Mus musculus, Neuron): > 1 µM
SMILES: Oc1ccc(-c2cc(Nc3ccc(N4CCN(c5ccccc5)CC4)cc3)ncn2)cc1 [Cmpd 65]

- IC50 ([1]; Mus musculus, Neuron): 1.09 µM
SMILES: CCN(CCO)c1ccc(Nc2cc(-c3ccc(CNC(=O)OC(C)(C)C)cc3)ncn2)cc1 [Cmpd 147]

- IC50 ([1]; Mus musculus, Neuron): 0.47 µM
SMILES: CCN(CCO)c1ccc(Nc2cc(-c3cccc(N(C)C)c3)ncn2)cc1 [Cmpd 148]

- IC50 ([1]; Mus musculus, Neuron): 0.33 µM
SMILES: CN(C)c1ccc(Nc2cc(-c3ccc(N(C)C)cc3)ncn2)cc1 [Cmpd 149]

- IC50 [1]: > 1 µM
SMILES: CCn1c2ccccc2c2ccc(Nc3cc(-c4ccc(OC)c(OC)c4)ncn3)cc21 [Cmpd 151]

- IC50 [1]: > 1 µM
SMILES: CCn1c2ccccc2c2ccc(Nc3cc(-c4cc(OC)c(OC)c(OC)c4)ncn3)cc21 [Cmpd 152]

- IC50 [1]: 0.55 µM
SMILES: CCn1c2ccccc2c2ccc(Nc3cc(-c4ccc(N5CCN(C)CC5)cc4)ncn3)cc21 [Cmpd 154]

SMILES: N[C@@H](CCC(=O)O)C(=O)O [Glutamate]
- reduction in Alamar blue fluorescence ([3]; 3 mM glutamate and 1 mM glycine for 24 hours): 60%
- EC50 ([3]; constant 1 mM glycine, 24 hours, average of 6 curves, read-out: Glutamate toxicity EC50): 8100 nM

SMILES: NCC(=O)O [Glycine]
- effect on basal P19 neuron viability, substance alone ([3]; no inducer of toxicity (U0126: 10 μM)): did not affect P19 neuron viability

SMILES: O=S(=O)(NCCNC/C=C/c1ccc(Br)cc1)c1cccc2cnccc12 [H-89]
- Maximal Efficacy for Neuroprotection [4]: <25%
- IC50 ([4]; mean of three separate curves, read-out: IC50 for Neuroprotection [lower-upper 95% C.I.]): > 10000 nM
- Ki [5]: ~30000 nM

SMILES: CN([C@@H](Cc1ccc(OS(=O)(=O)c2cccc3cnccc23)cc1)C(=O)N1CCN(c2ccccc2)CC1)S(=O)(=O)c1cccc2cnccc12 [KN62]
- Maximal Efficacy for Neuroprotection [4]: <10%
- IC50 for Neuroprotection [lower-upper 95% C.I.] ([4]; mean of three separate curves): Ineffective
- Ki [5]: ~900 nM
